We go through 3 compounds from BindingDB's records for patent US11414404 (Array BioPharma Inc., 2022).

In the assay the target is Serine/threonine-protein kinase B-raf [V600E] (Homo sapiens, UniProt P15056, V600E). As to the kind of experiment: BRAF V600E and V600K Enzyme Assay. From the text: A competitive displacement assay was configured for B-Raf that monitors the amount of a fluorescently-tagged tracer bound to B-Raf via TR-FRET from an anti-tag Eu-labeled antibody also bound to B-Raf.
Chain of Serine/threonine-protein kinase B-raf [V600E] (P15056 2-766 V600E limits assumed): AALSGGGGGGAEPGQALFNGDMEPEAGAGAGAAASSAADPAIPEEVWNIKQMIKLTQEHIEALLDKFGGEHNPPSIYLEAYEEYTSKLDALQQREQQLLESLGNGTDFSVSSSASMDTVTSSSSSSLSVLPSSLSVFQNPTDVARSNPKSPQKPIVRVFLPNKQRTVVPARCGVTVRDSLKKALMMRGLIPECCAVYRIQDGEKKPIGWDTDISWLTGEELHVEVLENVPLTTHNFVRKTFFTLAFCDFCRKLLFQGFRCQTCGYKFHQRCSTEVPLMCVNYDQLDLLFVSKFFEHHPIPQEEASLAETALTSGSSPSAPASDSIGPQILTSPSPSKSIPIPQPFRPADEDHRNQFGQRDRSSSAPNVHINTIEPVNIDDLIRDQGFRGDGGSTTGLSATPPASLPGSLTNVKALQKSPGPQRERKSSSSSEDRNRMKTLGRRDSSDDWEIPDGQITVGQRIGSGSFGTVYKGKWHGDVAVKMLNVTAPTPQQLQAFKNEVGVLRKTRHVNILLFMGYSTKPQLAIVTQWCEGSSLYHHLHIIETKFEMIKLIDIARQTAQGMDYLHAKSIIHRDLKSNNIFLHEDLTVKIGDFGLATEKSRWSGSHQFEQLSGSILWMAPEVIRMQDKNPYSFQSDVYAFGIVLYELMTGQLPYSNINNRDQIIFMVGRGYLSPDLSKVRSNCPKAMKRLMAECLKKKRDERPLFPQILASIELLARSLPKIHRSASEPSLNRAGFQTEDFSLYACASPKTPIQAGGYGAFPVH
As a reminder, the IC50 is the concentration at which inhibition is half-maximal. Lower therefore signals greater potency in that assay. Take `Cc1c(Nc2c(F)cnc(NS(=O)(=O)CC3CC3)c2Cl)ccc2ncn(C)c(=O)c12` [US11414404, Ex. # 47]: the IC50 was found to be 41.7 nM. This lies in the double-digit nanomolar range. Then `Cc1c(Nc2c(F)ccc(NS(=O)(=O)CC(C)C)c2Cl)ccc2ncn(C)c(=O)c12` [US11414404, Ex. # 51], with 63.4 nM; and `Cc1c(Nc2c(F)ccc(NS(=O)(=O)CC3CC3)c2Cl)ccc2ncn(C)c(=O)c12` [US11414404, Ex. # 50], with 66.1 nM.
